Patent publication US6982334B2, “Crystalline form of (3R,4R)-4-[3-(S)-hydroxy-3-(6-methoxyquinolin-4-yl)propyl]-1-[2-(2-thienylthio)ethyl]piperindine-3-carboxylic acid” (Aventis Pharma S.A., priority 2002, dated 2006)

What was measured:
[1] = Loss in mass (dehydration) of monohydrate form C at low humidity; assay type: physicochemical; details: below 50% humidity and between 20° C. and 80° C.; 1 mole of water/mole of the acid
Experimental: According to another aspect of the present invention, form A can also be obtained from another monohydrate crystalline form known hereinbelow as form C. Below 50% humidity and between 20° C. and 80° C., form C undergoes a loss in mass of 3.7% by weight (1 mole of water/mole of the acid). […] Form B is obtained more particularly by heating form C to 70° C. or from form C held at 25° C. at 0% humidity.

[2] = Stability at high temperature of the crystalline form; assay type: physicochemical; details: up to its melting point
[3] = assay type: physicochemical

Row | Structure (SMILES) | loss in mass (dehydration to form B) [1] [% by weight] | stability at high temperature [2] | hygroscopicity ([3]; solid crystalline form) | state after storage ([3]; storage at 97% relative humidity for 11 weeks at 20° C.)
1 | COc1ccc2nccc([C@@H](O)CC[C@@H]3CCN(CCSc4cccs4)C[C@@H]3C(=O)O)c2c1 [Form C, (3R,4R)-4-[3-(S)-hydroxy-3-(6-methoxyquinolin-4-yl)propyl]-1-[2-(2-thienylthio)ethyl]piperidine-3-carboxylic acid] | 3.7 | – | – | –
2 | COc1ccc2nccc([C@@H](O)CC[C@@H]3CCN(CCSc4cccs4)C[C@@H]3C(=O)O)c2c1 [Form A, (3R,4R)-4-[3-(S)-hydroxy-3-(6-methoxyquinolin-4-yl)propyl]-1-[2-(2-thienylthio)ethyl]piperidine-3-carboxylic acid] | – | stable at high temperature, namely up to its melting point | not hygroscopic | still anhydrous and stable
